# In paper PMC6222927, “Aminobenzosuberone Scaffold as a Modular Chemical Tool for the Inhibition of Therapeutically Relevant M1 Aminopeptidases” (Molecules : A Journal of Synthetic Chemistry and Natural …, 2018):
# Like-named read-outs stand apart in the source and are kept apart here. Marks after values point to notes of the source that are not given here.
# How the values were obtained:
# [1] = Octanol/water partition coefficient (logD7.4) by reversed-phase HPLC; conditions: pH 7.4
# Description: The flow was 0.9 mL/min. The aminobenzosuberone derivatives were dissolved at 0.4 µM in methanol. The standards were also dissolved in methanol. Column void volume was estimated from the retention time of uracil, which was included as a non-retained internal reference with each injection.
# P. falciparum rPfAM1 = molecular target: T1, P. falciparum rPfAM1 (Plasmodium falciparum, UniProt O96935); assay: biochemical; format: biochemical
# T1 construct: made in house; host or cells: Escherichia coli Rosetta 2 (DE3)
# T1 sequence (O96935 1-1085): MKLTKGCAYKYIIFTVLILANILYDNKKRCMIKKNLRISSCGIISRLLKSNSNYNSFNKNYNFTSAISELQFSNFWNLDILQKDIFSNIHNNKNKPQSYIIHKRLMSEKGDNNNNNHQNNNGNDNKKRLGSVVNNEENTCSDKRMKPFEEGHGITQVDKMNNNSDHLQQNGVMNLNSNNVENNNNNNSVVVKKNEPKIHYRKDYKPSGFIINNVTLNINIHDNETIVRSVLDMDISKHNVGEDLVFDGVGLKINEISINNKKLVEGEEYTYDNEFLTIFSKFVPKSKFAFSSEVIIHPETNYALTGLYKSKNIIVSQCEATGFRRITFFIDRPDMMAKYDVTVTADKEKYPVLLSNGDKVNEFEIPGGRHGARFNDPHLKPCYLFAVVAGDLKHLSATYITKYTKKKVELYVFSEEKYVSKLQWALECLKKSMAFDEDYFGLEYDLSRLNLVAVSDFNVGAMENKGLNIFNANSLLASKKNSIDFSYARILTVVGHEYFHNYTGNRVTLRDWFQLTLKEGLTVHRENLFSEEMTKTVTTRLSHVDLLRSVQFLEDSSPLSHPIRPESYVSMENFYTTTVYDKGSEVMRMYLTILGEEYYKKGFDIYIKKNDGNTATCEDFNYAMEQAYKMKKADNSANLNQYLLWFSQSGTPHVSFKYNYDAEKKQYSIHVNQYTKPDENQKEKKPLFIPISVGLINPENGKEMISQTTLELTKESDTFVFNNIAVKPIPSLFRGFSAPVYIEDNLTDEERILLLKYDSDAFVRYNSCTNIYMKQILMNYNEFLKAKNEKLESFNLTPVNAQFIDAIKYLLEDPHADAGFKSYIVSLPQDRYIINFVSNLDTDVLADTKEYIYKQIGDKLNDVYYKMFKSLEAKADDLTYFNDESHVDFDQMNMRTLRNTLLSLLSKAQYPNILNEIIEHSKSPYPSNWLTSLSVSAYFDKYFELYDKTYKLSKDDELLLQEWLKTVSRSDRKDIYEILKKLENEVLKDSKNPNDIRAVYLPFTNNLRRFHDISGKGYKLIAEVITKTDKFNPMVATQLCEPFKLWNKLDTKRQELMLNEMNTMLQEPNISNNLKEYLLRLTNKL
# Description: Initial velocities were measured with increasing concentrations of inhibitors and Ki values were determined by Dixon plots in triplicate.
# pAPN from porcine kidney = conditions: Dixon plots; cited from earlier work
# [2] = molecular target: aminopeptidase from A. proteolytica (AAP); design: method as in PMID 21843945; conditions: ref 58; cited from earlier work
# [3] = tested on: human leukotriene A4 hydrolase (rHsLTA4H); design: method as in PMID 21843945; conditions: cited from earlier work; for % of inhibition of rHsLTA4H: determined at 100 µM; for Ki: ref 58
# [4] = molecular target: human puromycine sensitive aminopeptidase (rHsPSA) (Homo sapiens, UniProt P55786); assay: rHsPSA inhibition, Leu-pNA substrate, Dixon method; format: biochemical; conditions: triplicate, SD
# Description: Enzyme activity assays were carried out in 10 mM Tris-HCl buffer at pH 7.5 with 150 mM NaCl, enzyme, 100 µM substrate (Leu-pNA) in a 100 μL reaction at 37 °C. The absorbance was read at 405 nm. Concentrations ranging from 1 nM to 100 μM of inhibitors (dissolved in DMSO) were incubated with each of the enzymes ([…]) for 30 min at 37 °C in a 96 well plate. After addition of the substrate, immediate increase in absorption was measured. All inhibition assays were performed in triplicates and initial velocities were measured. Percentage inhibition and log values of inhibitor concentrations were plotted using SigmaPlot to determine IC50 values. Ki values were determined by the Dixon method. The assay consists of reaction buffer, enzyme and varied concentrations of Leu-pNA (25, 50, 100, 200 and 400 µM). […]. All the reactions were performed in triplicates, SD values were reported.
# [5] = molecular target: T2, human endoplasmic reticulum aminopeptidase 2 (rHsERAP2) (Homo sapiens, UniProt Q6P179); assay: rHsERAP2 inhibition, R-AMC fluorigenic substrate; format: biochemical; conditions: 50 µM R-AMC
# T2 construct: made in house; host or cells: Hi5 insect cells (baculovirus produced in sf9)
# Description: (§1) The enzymatic activity of HsERAP1, HsERAP2 and HsIRAP was determined by following the time-dependent increase in fluorescence at 460 nm (excitation: 380 nm) of the fluorigenic substrates L-Leucine-7-amido-4-methyl coumarin (L-AMC; Sigma, Darmstatd, Germany) for HsERAP1 and HsIRAP and L-arginyl-7-amido-4-methyl coumarin (R-AMC; Sigma) for HsERAP2. […] The reaction was followed for 10 min at room temperature and the remaining enzymatic activity was calculated by measuring the slope of the time course.
# [6] = molecular target: T3, human Leucyl-cystinyl aminopeptidase (rHsIRAP) (Homo sapiens, UniProt Q9UIQ6); assay: rHsIRAP inhibition, L-AMC fluorigenic substrate; format: biochemical
# T3 construct: made in house; host or cells: Hi5 insect cells (baculovirus produced in sf9)
# Description: The enzymatic activity of HsERAP1, HsERAP2 and HsIRAP was determined by following the time-dependent increase in fluorescence at 460 nm (excitation: 380 nm) of the fluorigenic substrates L-Leucine-7-amido-4-methyl coumarin (L-AMC; Sigma, Darmstatd, Germany) for HsERAP1 and HsIRAP and L-arginyl-7-amido-4-methyl coumarin (R-AMC; Sigma) for HsERAP2. […]. The reaction was followed for 10 min at room temperature and the remaining enzymatic activity was calculated by measuring the slope of the time course. […]
# [7] = molecular target: T4, human endoplasmic reticulum aminopeptidase 1 (rHsERAP1) (Homo sapiens, UniProt Q9NZ08); assay: rHsERAP1 inhibition, L-AMC fluorigenic substrate; format: biochemical; conditions: 50 µM L-AMC
# T4 construct: made in house; host or cells: Hi5 insect cells (baculovirus produced in sf9)
# Description: as §1
# P. falciparum rPfAM17 = molecular target: T5, P. falciparum rPfAM17 (Plasmodium falciparum, UniProt Q8IL11); assay: rPfAM17 inhibition, Leu-pNA substrate, Dixon plots; format: biochemical
# T5 construct: made in house; host or cells: Escherichia coli Rosetta 2 (DE3)
# T5 sequence (Q8IL11 1-605): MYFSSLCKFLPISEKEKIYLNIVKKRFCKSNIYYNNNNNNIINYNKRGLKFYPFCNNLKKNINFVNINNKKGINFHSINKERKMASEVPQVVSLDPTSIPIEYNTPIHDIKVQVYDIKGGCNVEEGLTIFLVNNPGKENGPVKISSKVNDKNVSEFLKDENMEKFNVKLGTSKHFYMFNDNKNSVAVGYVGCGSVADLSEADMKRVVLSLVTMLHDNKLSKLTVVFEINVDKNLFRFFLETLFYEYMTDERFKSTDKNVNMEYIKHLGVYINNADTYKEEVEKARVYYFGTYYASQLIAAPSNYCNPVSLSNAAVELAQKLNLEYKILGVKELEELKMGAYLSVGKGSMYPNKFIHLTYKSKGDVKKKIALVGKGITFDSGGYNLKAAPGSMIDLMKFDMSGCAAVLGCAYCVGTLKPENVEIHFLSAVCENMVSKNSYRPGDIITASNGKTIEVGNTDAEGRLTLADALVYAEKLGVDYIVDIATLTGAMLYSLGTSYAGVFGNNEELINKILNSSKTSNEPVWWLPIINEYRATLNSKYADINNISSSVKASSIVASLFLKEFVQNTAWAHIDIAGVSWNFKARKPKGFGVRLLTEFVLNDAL
# Description: Tests were carried out on HP/Agilent UV-Visible diode array spectrophotometer 8453 (HP/Agilent, Santa Clara, CA, USA), at 30 °C in Tris HCl 50 mM pH 7.4 for rPfAM1 and pH 8 for rPfAM17, with a final DMSO concentration of 1%. […]. […] Initial velocities were measured with increasing concentrations of inhibitors and Ki values were determined by Dixon plots in triplicate.
# E. coli rEcPepN = E. coli rEcPepN (Escherichia coli, UniProt P04825); assay: rEcPepN inhibition, Leu-pNA substrate, Dixon method; format: biochemical
# Description: Enzyme activity assays were carried out in 10 mM Tris-HCl buffer at pH 7.5 with 150 mM NaCl, enzyme, 100 µM substrate (Leu-pNA) in a 100 μL reaction at 37 °C. The absorbance was read at 405 nm. Concentrations ranging from 1 nM to 100 μM of inhibitors (dissolved in DMSO) were incubated with each of the enzymes ([…]) for 30 min at 37 °C in a 96 well plate. After addition of the substrate, immediate increase in absorption was measured. All inhibition assays were performed in triplicates and initial velocities were measured. Percentage inhibition and log values of inhibitor concentrations were plotted using SigmaPlot to determine IC50 values. Ki values were determined by the Dixon method. The assay consists of reaction buffer, enzyme and varied concentrations of Leu-pNA (25, 50, 100, 200 and 400 µM). […] Data were plotted as 1/rate versus inhibitor concentration for each substrate concentration and a linear fit was calculated by non-linear regression using SigmaPlot12.5. All the reactions were performed in triplicates, SD values were reported.
# [8] = molecular target: P. falciparum (PfAM1) M1 aminopeptidase; conditions: cited from earlier work
# [9] = molecular target: human puromycine sensitive aminopeptidase (HsPSA); conditions: cited from earlier work
# [10] = molecular target: mammalian aminopeptidase N (mAPN); conditions: cited from earlier work
# [11] = tested on: E. coli (EcPepN) M1 aminopeptidase; conditions: ref 49; cited from earlier work
# [12] = molecular target: human aminopeptidase A (HsAPA); conditions: ref 50; cited from earlier work
# [13] = molecular target: P. falciparum M17 aminopeptidase (PfAM17); conditions: ref 45; cited from earlier work
# [14] = Dixon plots, triplicate, read-out: Ki rPfAM1
# [15] = 50 µM L-AMC, read-out: IC50 rHsIRAP
# T4 sequence (Q9NZ08 whole entry): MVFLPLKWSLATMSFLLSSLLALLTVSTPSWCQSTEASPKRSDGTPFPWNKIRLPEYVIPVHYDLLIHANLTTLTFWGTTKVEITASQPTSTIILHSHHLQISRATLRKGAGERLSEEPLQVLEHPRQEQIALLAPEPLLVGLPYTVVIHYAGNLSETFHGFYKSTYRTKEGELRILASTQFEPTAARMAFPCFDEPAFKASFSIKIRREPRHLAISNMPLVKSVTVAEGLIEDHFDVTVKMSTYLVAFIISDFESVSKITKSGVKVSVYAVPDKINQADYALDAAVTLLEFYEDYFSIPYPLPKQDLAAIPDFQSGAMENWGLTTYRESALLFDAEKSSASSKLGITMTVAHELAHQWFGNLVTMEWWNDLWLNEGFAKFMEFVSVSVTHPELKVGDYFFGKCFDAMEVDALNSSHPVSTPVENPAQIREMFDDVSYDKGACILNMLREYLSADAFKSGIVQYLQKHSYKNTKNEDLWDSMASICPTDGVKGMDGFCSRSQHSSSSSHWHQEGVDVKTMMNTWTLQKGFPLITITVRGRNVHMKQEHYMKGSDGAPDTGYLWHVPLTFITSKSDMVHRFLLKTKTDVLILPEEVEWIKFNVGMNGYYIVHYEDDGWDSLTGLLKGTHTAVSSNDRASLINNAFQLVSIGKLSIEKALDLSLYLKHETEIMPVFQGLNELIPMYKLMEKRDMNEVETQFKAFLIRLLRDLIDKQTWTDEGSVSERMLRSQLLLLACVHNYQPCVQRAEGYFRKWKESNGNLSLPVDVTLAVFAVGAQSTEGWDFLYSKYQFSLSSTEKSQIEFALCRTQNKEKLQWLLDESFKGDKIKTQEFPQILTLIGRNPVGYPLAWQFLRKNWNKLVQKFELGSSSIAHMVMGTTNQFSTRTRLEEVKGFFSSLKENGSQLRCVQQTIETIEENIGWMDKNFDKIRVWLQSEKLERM
# T2 sequence (Q6P179 whole entry): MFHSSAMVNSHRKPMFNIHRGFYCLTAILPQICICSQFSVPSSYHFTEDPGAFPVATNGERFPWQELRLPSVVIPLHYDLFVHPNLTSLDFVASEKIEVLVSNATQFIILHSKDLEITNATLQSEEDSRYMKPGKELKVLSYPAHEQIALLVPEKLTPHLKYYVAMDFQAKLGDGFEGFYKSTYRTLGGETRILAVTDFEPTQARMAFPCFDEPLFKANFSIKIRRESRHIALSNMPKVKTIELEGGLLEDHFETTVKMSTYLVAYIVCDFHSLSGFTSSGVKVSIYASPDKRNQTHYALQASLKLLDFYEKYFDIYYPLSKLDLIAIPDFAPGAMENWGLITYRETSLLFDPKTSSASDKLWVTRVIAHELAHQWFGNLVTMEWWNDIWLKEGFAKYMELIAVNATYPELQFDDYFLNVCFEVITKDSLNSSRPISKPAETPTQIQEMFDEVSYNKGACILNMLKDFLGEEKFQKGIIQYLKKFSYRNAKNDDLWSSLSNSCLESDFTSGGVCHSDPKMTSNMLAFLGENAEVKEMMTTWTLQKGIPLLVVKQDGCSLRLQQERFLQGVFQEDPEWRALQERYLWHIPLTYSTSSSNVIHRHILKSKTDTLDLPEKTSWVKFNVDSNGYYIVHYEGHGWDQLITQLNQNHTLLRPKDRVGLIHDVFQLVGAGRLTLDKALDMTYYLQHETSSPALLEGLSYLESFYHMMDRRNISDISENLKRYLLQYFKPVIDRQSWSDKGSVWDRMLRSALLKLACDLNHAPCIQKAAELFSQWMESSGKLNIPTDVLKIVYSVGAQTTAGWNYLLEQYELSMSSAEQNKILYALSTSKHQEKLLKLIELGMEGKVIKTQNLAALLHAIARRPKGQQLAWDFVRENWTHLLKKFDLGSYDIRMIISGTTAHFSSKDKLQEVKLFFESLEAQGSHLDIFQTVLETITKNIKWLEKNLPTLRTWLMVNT
# Chain of E. coli rEcPepN (P04825 whole entry): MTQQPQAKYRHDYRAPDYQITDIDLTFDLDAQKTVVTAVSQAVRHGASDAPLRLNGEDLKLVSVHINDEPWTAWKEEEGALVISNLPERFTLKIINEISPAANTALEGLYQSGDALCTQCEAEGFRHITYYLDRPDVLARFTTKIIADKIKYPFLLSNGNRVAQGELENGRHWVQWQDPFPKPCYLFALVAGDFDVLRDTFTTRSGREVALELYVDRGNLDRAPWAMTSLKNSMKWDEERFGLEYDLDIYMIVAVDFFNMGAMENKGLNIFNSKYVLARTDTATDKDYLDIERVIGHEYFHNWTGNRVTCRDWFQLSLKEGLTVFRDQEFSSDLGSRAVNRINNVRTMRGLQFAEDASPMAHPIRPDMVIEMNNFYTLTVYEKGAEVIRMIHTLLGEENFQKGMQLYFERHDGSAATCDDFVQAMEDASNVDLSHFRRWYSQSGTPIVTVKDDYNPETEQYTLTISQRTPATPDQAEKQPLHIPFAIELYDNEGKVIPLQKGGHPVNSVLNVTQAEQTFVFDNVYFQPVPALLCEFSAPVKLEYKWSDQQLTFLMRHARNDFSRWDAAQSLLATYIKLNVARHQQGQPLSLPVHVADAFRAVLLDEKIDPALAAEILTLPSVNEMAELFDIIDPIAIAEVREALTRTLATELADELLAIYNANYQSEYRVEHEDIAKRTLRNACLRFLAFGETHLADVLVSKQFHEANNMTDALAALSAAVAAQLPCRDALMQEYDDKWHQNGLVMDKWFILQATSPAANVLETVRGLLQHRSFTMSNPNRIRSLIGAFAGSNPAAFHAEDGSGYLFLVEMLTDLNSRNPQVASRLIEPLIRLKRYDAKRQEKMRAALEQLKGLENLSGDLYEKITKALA
# T3 sequence (Q9UIQ6 155-1025 limits assumed): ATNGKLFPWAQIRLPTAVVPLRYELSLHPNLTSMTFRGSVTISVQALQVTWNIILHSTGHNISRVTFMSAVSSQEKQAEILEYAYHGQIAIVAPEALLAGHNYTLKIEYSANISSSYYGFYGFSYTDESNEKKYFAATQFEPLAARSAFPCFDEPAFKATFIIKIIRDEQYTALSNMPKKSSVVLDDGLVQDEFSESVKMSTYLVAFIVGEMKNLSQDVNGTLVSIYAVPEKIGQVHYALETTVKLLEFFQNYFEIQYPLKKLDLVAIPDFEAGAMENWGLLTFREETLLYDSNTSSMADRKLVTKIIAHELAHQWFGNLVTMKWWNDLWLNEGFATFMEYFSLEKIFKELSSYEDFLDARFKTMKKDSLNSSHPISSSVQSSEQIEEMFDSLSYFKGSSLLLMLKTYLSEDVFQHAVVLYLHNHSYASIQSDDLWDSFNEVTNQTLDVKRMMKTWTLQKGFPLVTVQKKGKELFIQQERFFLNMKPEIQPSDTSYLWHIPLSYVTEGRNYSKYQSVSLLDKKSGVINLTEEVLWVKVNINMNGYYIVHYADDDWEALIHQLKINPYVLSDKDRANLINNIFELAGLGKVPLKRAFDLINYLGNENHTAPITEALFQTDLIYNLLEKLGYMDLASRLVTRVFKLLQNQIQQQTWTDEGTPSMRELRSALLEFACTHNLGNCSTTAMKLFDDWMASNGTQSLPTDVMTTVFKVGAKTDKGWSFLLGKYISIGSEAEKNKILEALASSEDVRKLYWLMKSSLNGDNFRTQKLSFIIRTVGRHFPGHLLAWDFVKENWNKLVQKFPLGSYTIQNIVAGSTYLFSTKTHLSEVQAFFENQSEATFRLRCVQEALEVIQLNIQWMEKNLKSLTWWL
# Chain of human puromycine sensitive aminopeptidase (rHsPSA) (P55786 whole entry): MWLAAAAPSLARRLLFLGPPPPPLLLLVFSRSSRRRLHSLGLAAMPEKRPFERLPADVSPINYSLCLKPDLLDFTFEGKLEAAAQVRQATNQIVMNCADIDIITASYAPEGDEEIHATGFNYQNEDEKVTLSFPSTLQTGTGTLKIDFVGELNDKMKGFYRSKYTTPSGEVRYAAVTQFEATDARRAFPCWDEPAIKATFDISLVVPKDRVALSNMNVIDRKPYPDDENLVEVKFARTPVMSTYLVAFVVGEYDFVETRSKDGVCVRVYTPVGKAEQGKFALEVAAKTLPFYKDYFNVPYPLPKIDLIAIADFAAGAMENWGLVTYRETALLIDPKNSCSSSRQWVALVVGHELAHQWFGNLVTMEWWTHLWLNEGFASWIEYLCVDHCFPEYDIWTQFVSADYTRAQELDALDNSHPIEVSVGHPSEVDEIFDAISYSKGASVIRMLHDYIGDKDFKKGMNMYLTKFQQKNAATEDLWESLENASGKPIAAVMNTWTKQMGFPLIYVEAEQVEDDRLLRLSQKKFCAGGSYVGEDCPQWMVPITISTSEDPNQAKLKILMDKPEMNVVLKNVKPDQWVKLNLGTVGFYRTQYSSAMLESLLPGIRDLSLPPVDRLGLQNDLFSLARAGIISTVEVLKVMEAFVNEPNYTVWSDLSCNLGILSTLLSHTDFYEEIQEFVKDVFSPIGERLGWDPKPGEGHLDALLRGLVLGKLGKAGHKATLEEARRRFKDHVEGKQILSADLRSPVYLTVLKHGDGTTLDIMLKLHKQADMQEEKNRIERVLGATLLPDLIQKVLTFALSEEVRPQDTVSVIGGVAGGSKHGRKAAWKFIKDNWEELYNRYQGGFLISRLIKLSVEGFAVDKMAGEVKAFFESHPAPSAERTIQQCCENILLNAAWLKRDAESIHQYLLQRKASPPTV
smiles,measurement,setting,value
NC1CCc2c(-c3ccccc3)ccc(Br)c2CC1=O (centres unmarked) [21j],chromatographic logD,[1],3.06
same,Ki,P. falciparum rPfAM1; [14],4000 ± 700 nM
same,Ki,pAPN from porcine kidney,70 nM
same,Ki,[2],> 100000 nM
same,% of inhibition of rHsLTA4H,[3],54% ^#
NC1CCc2cccc(Br)c2CC1=O (centres unmarked) [21b],Ki,[4],1630 ± 80 nM
same,IC50,[5],49000 ± 3800 nM
same,chromatographic logD,[1],1.28
same,IC50,[6]; [15],1000 ± 80 nM
same,IC50,[7],120000 ± 11000 nM
same,Ki,P. falciparum rPfAM17,> 100000 nM
same,Ki,pAPN from porcine kidney,40 nM
same,Ki,E. coli rEcPepN,1070 ± 110 nM
same,Ki,[2],> 100000 nM
same,Ki,[3],> 100000 nM
CCOC(=O)C1=C(Nc2ccccc2)CC(c2ccccn2)N(c2ccccc2)C1c1cccnc1 (centres unmarked) [compound 4],Ki,[8]; ref 49,> 100000 nM
same,IC50,[9]; ref 49,1790 nM
same,Ki,[10]; ref 49,> 100000 nM
same,Ki,[11],> 100000 nM
O=C(CCc1ccc(F)cc1)/C(=C/c1ccccc1)C(=O)NO [compound 10],IC50,"[8]; ref 35, 53",6 nM
same,IC50,"[10]; ref 35, 53",1370 nM
N[C@H](CS)CCC(=O)O [compound 6],Ki,[12],140 nM
NC1CCc2c(cccc2-c2ccccc2)CC1=O (centres unmarked) [21f],IC50,[5],> 200000 nM
same,chromatographic logD,[1],2.22
same,IC50,[6]; [15],2200 ± 130 nM
same,Ki,P. falciparum rPfAM1,2000 ± 70 nM
same,IC50,[7],137000 ± 5000 nM
same,Ki,P. falciparum rPfAM17,> 100000 nM
same,Ki,pAPN from porcine kidney,250 nM
same,Ki,[2],> 100000 nM
same,Ki,[3],> 100000 nM
NC1CCc2ccccc2CC1=O (centres unmarked) [21a],chromatographic logD,[1],0.54
same,Ki,P. falciparum rPfAM1; [14],15000 ± 70 nM
same,Ki,pAPN from porcine kidney,1000 nM
same,Ki,E. coli rEcPepN,50000 ± 3000 nM
same,Ki,[2],> 100000 nM
same,Ki,[3],> 100000 nM
CCc1cccc(CC)c1N1C(=O)c2cccc3cccc(c23)C1=O [compound 12],IC50,[9]; ref 55,800 nM
same,Ki,[10]; ref 55,> 100000 nM
NC1CCc2c(ccc3ccccc23)CC1=O (centres unmarked) [21g],chromatographic logD,[1],1.67
same,Ki,P. falciparum rPfAM1; [14],15000 ± 1000 nM
same,Ki,pAPN from porcine kidney,40 nM
same,Ki,[2],> 100000 nM
same,Ki,[3],> 100000 nM
NC1CCc2c(Br)ccc(Br)c2CC1=O (centres unmarked) [21h],chromatographic logD,[1],2.48
same,IC50,[6],34 ± 1 nM
same,Ki,[6]; read-out: Ki HsIRAP,34 nM
same,Ki,P. falciparum rPfAM1; [14],5 ± 1 nM
NC1CCc2c(Br)ccc(-c3ccccc3)c2CC1=O (centres unmarked) [21i],Ki,[4],21 ± 3 nM
same,IC50,[5],390 ± 13 nM
same,chromatographic logD,[1],3.12
same,IC50,[6],120 ± 15 nM
same,Ki,P. falciparum rPfAM1,30 ± 5 nM
same,IC50,[7],1600 ± 100 nM
same,Ki,pAPN from porcine kidney,0.06 nM
same,Ki,"E. coli rEcPepN; Dixon method, triplicate, SD, read-out: Ki rEcPepN",50 ± 3 nM
same,times more potent than 21c on EcPepN,"E. coli rEcPepN; ratio of Ki values, 21i versus 21c",3
same,Ki,[2],39000 nM
same,% of inhibition of rHsLTA4H,[3],68% ^#
NC(CCc1ccccc1)P(=O)(O)CC(Cc1ccccc1)C(=O)O (centres unmarked) [compound 2],Ki,[8]; ref 47,79 nM
same,Ki,[13],13 nM
same,Ki,[10]; ref 46,2 nM
